From patent US20040204463A1, “N-aryl-2-oxazolidinone-5-carboxamides and their derivatives” (priority 2003, published 2004)
≈ marks a conversion by molar mass, not a printed value.

How the values were obtained:
[1] = test system: HINF 30063; experiment: In vitro MIC by standard agar dilution method, HINF 30063; assay type: cell-based, H. influenzae; conditions: Haemophilus influenzae; agar dilution, Mueller Hinton agar, incubated overnight at 35° C.; lowest concentration that inhibits visible growth; read-out: HINF 30063 MIC (Minimum Inhibitory Concentration)
Excerpt: (§1) The oxazolidinone antibacterial agents of this invention have useful activity against a variety of organisms. The in vitro activity of compounds of this invention can be assessed by standard testing procedures such as the determination of minimum inhibitory concentration (MIC) by agar dilution as described in “Approved Standard. Methods for Dilution Antimicrobial Susceptibility Tests for Bacteria That Grow Aerobically”, 3rd. ed., published 1993 by the National Committee for Clinical Laboratory Standards, Villanova, Pa., USA.
(§2) The in vitro MICs of test compounds were determined by a standard agar dilution method. A stock drug solution of each analog was prepared in the preferred solvent, usually DMSO: H2O (1:3). Serial 2-fold dilutions of each sample are made using 1.0 ml aliquots of sterile distilled water. To each 1.0 ml aliquot of drug was added 9 ml of molten Mueller Hinton agar medium. The drug-supplemented agar was mixed, poured into 15×100 mm petri dishes, and allowed to solidify and dry prior to inoculation.
(§3) Vials of each of the test organisms are maintained frozen in the vapor phase of a liquid nitrogen freezer. Test cultures are grown overnight at 35° C. on the medium appropriate for the organism. Colonies are harvested with a sterile swab, and cell suspensions are prepared in Trypticase Soy broth (TSB) to equal the turbidity of a 0.5 McFarland standard. A 1:20 dilution of each suspension was made in TSB. The plates containing the drug supplemented agar are inoculated with a 0.001 ml drop of the cell suspension using a Steers replicator, yielding approximately 10^4 to 10^5 cells per spot. The plates are incubated overnight at 35° C.
(§4) Following incubation the Minimum Inhibitory Concentration (MIC μg/ml), the lowest concentration of drug that inhibits visible growth of the organism, was read and recorded.

[2] = test system: SAUR 9213; experiment: In vitro MIC by standard agar dilution method, SAUR 9213; assay type: cell-based, S. aureus; conditions: Staphylococcus aureus; agar dilution, Mueller Hinton agar, incubated overnight at 35° C.; lowest concentration that inhibits visible growth; read-out: SAUR 9213 MIC (Minimum Inhibitory Concentration)
Excerpt: as §1, §2, §3, §4

[3] = test system: SPNE 9912; experiment: In vitro MIC by standard agar dilution method, SPNE 9912; assay type: cell-based; conditions: agar dilution, Mueller Hinton agar, incubated overnight at 35° C.; lowest concentration that inhibits visible growth; read-out: SPNE 9912 MIC (Minimum Inhibitory Concentration)
Excerpt: as §1, §2, §3, §4

SMILES | MIC [1] | MIC [2] | MIC [3]
CC(=O)NC[C@H]1CN(c2ccc(N3CCN(C(=O)CCCC#Cc4ccc(CN)cc4)CC3)c(F)c2)C(=O)O1 [Compound 26, N-({(5S)-3-[4-(4-{6-[4-(aminomethyl)phenyl]hex-5-ynoyl}piperazin-1-yl)-3-fluorophenyl]-2-oxo-1,3-oxazolidin-5-yl}methyl)acetamide] | 16 µg/mL (≈ 29.9 µM) | 4 µg/mL (≈ 7.47 µM) | 0.25 µg/mL (≈ 0.467 µM)
CC(=O)NC[C@H]1CN(c2ccc(N3CCN(C(=O)CCCC#Cc4cccc(O)c4)CC3)c(F)c2)C(=O)O1 [Compound 27, N-{[(5S)-3-(3-fluoro-4-{4-[6-(3-hydroxyphenyl)hex-5-ynoyl]piperazin-1-yl}phenyl)-2-oxo-1,3-oxazolidin-5-yl]methyl}acetamide] | > 64 µg/mL | 8 µg/mL (≈ 15.3 µM) | 1 µg/mL (≈ 1.91 µM)
CC(=O)NC[C@H]1CN(c2ccc(N3CCN(C(=O)CCC#Cc4cccc(O)c4)CC3)c(F)c2)C(=O)O1 [Compound 29, N-{[(5S)-3-(3-fluoro-4-{4-[5-(3-hydroxyphenyl)pent-4-ynoyl]piperazin-1-yl}phenyl)-2-oxo-1,3-oxazolidin-5-yl]methyl}acetamide] | > 64 µg/mL | 4 µg/mL (≈ 7.87 µM) | 1 µg/mL (≈ 1.97 µM)
CC(=O)NC[C@H]1CN(c2ccc(N3CCN(C(=O)CCC#Cc4ccc(O)cc4)CC3)c(F)c2)C(=O)O1 [Compound 30, N-{[(5S)-3-(3-fluoro-4-{4-[5-(4-hydroxyphenyl)pent-4-ynoyl]piperazin-1-yl}phenyl)-2-oxo-1,3-oxazolidin-5-yl]methyl}acetamide] | 64 µg/mL (≈ 126 µM) | 4 µg/mL (≈ 7.87 µM) | 1 µg/mL (≈ 1.97 µM)

Second part, the compound after the results:

MIC [1] | MIC [2] | MIC [3] | SMILES
64 µg/mL (≈ 144 µM) | 4 µg/mL (≈ 9 µM) | 1 µg/mL (≈ 2.25 µM) | C#CCCCCC(=O)N1CCN(c2ccc(N3C[C@H](CNC(C)=O)OC3=O)cc2F)CC1 [Compound 31, N-({(5S)-3-[3-fluoro-4-(4-hept-6-ynoylpiperazin-1-yl)phenyl]-2-oxo-1,3-oxazolidin-5-yl}methyl)acetamide]
64 µg/mL (≈ 116 µM) | 4 µg/mL (≈ 7.28 µM) | 2 µg/mL (≈ 3.64 µM) | CC(=O)NC[C@H]1CN(c2ccc(N3CCN(C(=O)CCCCC#Cc4cccc(CN)c4)CC3)c(F)c2)C(=O)O1 [Compound 32, N-({(5S)-3-[4-(4-{7-[3-(aminomethyl)phenyl]hept-6-ynoyl}-piperazin-1-yl)-3-fluorophenyl]-2-oxo-1,3-oxazolidin-5-yl}methyl)acetamide]
16 µg/mL (≈ 30.7 µM) | 4 µg/mL (≈ 7.67 µM) | 1 µg/mL (≈ 1.92 µM) | CC(=O)NC[C@H]1CN(c2ccc(N3CCN(C(=O)CCC#Cc4cccc(CN)c4)CC3)c(F)c2)C(=O)O1 [Compound 33, N-({(5S)-3-[4-(4-{5-[3-(aminomethyl)phenyl]pent-4-ynoyl}piperazin-1-yl)-3-fluorophenyl]-2-oxo-1,3-oxazolidin-5-yl}-methyl)acetamide]
